Results reported in ChEMBL document CHEMBL1201862, “PubChem BioAssay data set” (2004).
Calls of active or inactive are those of the source.

What was measured:
[1] = intracellular Trypanosoma cruzi inhibitors in host cells – cell-based, plate reader, cherry-pick samples, set 3, dose response (AID 651818); assay type: functional;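 further: compounds incubated with infected cells for about four days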
[2] = human group III sPLA2 inhibitors, dose response, biochemical, QFRET, IC50 (AID 743457);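 further: green fluorescence rise as the enzyme cleaves BODIPY PC-A2 in liposomes; potency for inhibition of the enzyme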
[3] = target: T1, DNA repair protein RAD52 homolog (Homo sapiens, UniProt P43351); assay type: functional, biochemical
T1 sequence (P43351 whole entry): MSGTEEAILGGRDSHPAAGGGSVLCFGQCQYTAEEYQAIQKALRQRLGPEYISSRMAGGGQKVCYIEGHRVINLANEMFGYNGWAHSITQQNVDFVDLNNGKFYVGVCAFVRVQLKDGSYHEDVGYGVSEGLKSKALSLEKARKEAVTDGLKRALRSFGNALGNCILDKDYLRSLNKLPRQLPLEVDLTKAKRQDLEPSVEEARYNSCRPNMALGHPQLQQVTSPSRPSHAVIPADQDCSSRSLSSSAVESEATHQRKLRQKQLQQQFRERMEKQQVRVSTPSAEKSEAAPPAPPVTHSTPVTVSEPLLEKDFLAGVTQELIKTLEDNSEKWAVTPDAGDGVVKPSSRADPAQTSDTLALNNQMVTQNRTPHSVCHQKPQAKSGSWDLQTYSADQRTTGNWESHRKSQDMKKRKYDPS

[4] = target: Estrogen receptor beta (Homo sapiens, UniProt Q92731);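 further: recombinant ER-beta bound to coactivator SRC1 peptide in presence of estradiol agonist; inhibitors block coactivator peptide binding and lower the FRET signal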
[5] = target: Heat shock protein HSP 90-alpha (Homo sapiens, UniProt P07900); assay type: functional, organism-based
[6] = target: Nonstructural protein 1 (Influenza A virus, UniProt Q194T2); assay type: functional, Influenza A virus (A/California/07/2009(H1N1))
[7] = target: T2, Microphthalmia-associated transcription factor (Homo sapiens, UniProt O75030); test: TRPM1 promoter luciferase signal decrease, dose response, MITF inhibitor project, cell-based, SK-MEL-5, cherry-picked, set 3 (AID 493073); assay type: functional
T2 sequence (O75030 whole entry): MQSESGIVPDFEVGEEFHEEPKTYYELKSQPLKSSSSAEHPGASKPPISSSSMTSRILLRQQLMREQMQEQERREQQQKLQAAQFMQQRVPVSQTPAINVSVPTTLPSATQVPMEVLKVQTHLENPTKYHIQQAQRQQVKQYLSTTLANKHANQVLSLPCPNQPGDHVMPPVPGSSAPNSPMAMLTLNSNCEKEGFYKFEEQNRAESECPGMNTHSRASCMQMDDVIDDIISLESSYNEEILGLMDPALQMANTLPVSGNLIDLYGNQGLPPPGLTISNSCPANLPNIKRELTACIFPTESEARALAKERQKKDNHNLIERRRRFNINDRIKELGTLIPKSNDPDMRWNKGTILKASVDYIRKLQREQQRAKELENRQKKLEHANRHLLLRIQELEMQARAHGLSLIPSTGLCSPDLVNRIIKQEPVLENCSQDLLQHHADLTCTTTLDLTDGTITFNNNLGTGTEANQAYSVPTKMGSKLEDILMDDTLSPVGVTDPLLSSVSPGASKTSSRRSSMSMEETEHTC

[8] = tested on: INS1; test: beta cell apoptosis inhibitors, cytokine rescue, dose response, luminescence, retest (AID 449756); assay type: functional, cell-based; settings: Rattus norvegicus;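 further: cell death triggered by IL-1 beta plus TNF-alpha plus IFN-gamma mixture; protective hits raise ATP signal compared with cytokine alone wells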
[9] = target: Large T antigen (Simian virus 40, UniProt P03070); assay type: functional, Betapolyomavirus macacae;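 further: Confirmatory-stage PubChem screen for compounds that inhibit SV40 T antigen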
[10] = target: T3, Protein RecA (Mycobacterium tuberculosis, UniProt P9WHJ3); test: Fluorescence Cell-Free Homogeneous Dose Retest to Identify Inhibitors of RecA-Intein Splicing Activity. [Related pubchem assays (depositor defined):AID2097, AID2223, AID489010, AID492950]; assay type: functional
T3 sequence (P9WHJ3 whole entry): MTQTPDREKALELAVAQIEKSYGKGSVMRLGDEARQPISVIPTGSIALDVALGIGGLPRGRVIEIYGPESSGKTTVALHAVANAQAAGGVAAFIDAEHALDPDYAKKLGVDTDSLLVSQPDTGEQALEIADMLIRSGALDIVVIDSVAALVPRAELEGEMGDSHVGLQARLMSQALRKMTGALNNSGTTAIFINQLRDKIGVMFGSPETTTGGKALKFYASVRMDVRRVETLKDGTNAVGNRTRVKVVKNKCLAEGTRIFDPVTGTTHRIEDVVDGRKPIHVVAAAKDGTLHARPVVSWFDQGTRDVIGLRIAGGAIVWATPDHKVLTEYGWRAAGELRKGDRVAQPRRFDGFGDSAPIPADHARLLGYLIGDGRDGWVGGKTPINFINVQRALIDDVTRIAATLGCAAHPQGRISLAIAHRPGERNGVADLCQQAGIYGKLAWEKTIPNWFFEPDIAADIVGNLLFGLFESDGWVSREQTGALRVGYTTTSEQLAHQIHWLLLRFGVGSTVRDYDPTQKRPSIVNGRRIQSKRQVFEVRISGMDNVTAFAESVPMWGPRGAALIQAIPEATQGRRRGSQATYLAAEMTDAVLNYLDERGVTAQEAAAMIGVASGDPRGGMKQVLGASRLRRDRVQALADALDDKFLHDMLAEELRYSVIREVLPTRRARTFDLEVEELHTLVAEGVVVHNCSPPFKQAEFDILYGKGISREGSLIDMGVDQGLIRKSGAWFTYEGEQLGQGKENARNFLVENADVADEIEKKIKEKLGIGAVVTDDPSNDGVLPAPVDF

[11] = target: T4, Heat shock factor protein 1 (Mus musculus, UniProt P38532); test: HSF1 potentiators in luciferase reporter cells, confirmation, cell-based, NIH3T3, luminescence, dose retest (AID 435004); assay type: functional;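 further: stress induced by proteasome inhibitor MG132 added 30 min after compound; luciferase reporter driven by HSF1 response element in NIH3T3 cells; actives raise luminescence as potentiators of the MG132 stress response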
T4 sequence (P38532 whole entry): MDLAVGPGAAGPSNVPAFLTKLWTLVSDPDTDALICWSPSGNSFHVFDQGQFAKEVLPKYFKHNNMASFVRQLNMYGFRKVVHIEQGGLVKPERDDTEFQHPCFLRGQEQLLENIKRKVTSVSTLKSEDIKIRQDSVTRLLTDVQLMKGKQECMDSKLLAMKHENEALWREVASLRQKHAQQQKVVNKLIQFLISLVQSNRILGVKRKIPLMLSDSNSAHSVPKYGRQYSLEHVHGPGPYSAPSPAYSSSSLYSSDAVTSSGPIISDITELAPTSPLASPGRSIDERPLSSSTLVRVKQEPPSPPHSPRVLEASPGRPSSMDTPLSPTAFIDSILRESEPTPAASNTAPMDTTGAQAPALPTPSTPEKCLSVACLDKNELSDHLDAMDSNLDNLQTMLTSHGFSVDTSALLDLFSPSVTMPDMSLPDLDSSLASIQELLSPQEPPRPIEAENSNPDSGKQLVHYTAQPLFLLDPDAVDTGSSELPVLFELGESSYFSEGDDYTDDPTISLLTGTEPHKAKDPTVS

[12] = target: T5, Replicative DNA helicase DnaB (Mycobacterium tuberculosis, UniProt P9WMR3); test: DnaB intein splicing inhibitors, dose response, biochemical, cell-free fluorescence (AID 449749); assay type: functional
T5 sequence (P9WMR3 whole entry): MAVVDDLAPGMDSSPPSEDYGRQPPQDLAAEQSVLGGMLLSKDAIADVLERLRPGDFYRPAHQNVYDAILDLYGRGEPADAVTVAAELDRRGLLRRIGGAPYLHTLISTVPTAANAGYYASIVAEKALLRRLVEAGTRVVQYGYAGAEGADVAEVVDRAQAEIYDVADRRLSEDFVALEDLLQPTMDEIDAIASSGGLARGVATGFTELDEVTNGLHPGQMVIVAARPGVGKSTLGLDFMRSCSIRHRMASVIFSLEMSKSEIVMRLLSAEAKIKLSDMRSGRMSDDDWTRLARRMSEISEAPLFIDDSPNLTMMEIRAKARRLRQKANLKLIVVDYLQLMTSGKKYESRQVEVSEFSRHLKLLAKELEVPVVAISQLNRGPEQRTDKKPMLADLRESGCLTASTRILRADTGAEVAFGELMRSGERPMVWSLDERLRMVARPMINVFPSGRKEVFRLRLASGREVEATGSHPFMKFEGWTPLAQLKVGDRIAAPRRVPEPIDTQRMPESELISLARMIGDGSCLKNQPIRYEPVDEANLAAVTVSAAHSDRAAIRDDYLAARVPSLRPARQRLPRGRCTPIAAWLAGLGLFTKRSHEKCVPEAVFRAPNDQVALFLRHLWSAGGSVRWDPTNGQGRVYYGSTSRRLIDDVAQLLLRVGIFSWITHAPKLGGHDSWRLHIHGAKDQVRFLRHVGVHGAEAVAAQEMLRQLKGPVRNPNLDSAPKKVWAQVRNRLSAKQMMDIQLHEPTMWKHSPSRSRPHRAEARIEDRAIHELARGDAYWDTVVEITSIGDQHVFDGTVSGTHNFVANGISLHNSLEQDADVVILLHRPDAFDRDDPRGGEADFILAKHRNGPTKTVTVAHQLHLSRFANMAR

[13] = IGROV1 ovarian cancer cell cytotoxicity, dose response, PAX8 inhibitor project, plate reader, dry powder samples (AID 743043); assay type: functional, cell-based; settings: IGROV-1
[14] = target: Paired box protein Pax-8 (Homo sapiens, UniProt Q06710); test: inhibitors of PAX8-driven TPO luciferase reporter, dose response, RMG-I cells, cherry-pick (AID 687027); assay type: functional, cell-based;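 further: luciferase reporter driven by Pax8 target thyroperoxidase promoter measured by SteadyGlo luminescence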
[15] = Luminescence Cell-Based Dose Confirmation HTS to Identify Activators of 5'UTR Stem-Loop Driven Alpha-Synuclein mRNA Translation in H4 Neuroglioblastoma Cells. [Related pubchem assays: 1829 (Project Summary), 1814 (Primary HTS)]; assay type: functional
[16] = Luminescence Cell-Based Dose Response HTS to Identify Activators of Luciferase Translation or Activity in H4 […] Cells. [Related pubchem assays: 1829 (Project Summary), 1814 (Primary HTS)]; assay type: functional
[17] = tested on: H4; test: Luminescence Cell-Based Dose Response HTS to Identify Activators of 5'UTR Stem-Loop Driven Prion Protein mRNA Translation in H4 Neuroglioblastoma Cells. [Related pubchem assays: 1829 (Project Summary), 1814 (Primary HTS)]; assay type: functional; settings: Homo sapiens

Estrogen receptor beta, sequence (Q92731 whole entry): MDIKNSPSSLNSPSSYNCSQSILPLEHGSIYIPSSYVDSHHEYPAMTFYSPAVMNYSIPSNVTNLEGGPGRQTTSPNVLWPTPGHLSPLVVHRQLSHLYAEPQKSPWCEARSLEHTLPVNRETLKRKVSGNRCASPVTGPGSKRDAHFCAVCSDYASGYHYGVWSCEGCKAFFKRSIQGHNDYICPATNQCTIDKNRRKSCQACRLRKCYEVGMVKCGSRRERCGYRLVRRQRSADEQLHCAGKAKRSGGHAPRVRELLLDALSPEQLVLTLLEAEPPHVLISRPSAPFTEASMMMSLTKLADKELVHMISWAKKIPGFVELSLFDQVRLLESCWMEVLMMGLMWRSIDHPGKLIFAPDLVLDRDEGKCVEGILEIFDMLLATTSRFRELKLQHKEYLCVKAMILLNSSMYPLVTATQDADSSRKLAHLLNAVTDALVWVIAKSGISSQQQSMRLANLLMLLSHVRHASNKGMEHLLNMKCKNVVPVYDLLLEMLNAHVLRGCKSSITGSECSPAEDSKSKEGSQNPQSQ
Nonstructural protein 1, sequence (Q194T2 whole entry): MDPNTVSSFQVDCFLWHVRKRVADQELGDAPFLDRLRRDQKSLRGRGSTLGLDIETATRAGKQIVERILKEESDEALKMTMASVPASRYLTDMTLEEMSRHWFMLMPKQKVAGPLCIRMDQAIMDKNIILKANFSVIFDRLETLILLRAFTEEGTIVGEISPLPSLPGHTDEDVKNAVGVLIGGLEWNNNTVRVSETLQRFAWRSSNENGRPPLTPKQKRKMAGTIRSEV
Paired box protein Pax-8, sequence (Q06710 whole entry): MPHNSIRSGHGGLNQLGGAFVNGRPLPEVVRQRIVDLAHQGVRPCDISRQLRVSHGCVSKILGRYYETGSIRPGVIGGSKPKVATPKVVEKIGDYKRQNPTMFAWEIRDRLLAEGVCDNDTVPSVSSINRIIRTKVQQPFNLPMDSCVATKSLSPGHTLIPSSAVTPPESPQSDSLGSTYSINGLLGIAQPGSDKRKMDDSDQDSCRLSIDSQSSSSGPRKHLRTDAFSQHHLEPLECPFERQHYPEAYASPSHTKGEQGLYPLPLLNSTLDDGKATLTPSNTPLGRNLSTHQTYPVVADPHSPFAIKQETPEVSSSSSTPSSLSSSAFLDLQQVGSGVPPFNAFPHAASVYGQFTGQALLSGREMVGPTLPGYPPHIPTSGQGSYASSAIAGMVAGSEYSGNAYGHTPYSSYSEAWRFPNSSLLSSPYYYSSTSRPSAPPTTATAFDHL
Large T antigen, sequence (P03070 whole entry): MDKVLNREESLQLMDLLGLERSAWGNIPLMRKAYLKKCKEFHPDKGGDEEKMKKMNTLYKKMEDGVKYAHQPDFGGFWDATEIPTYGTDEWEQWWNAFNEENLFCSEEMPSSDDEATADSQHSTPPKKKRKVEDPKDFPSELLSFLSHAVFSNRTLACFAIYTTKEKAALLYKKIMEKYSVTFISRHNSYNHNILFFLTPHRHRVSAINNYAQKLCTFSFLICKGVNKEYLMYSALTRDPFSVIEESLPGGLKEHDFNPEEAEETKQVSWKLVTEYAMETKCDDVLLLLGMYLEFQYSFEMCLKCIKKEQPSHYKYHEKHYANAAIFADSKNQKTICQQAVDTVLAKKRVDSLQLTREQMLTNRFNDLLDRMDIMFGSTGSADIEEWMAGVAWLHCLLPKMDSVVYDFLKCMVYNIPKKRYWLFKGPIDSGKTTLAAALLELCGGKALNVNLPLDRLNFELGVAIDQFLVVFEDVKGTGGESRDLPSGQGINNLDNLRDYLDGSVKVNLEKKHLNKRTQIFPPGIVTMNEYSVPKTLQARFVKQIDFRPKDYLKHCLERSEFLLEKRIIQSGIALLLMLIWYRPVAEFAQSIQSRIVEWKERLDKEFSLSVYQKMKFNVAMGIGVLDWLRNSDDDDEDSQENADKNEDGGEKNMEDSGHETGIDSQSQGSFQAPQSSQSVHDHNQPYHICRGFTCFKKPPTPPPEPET

## Cc1ccc(S(=O)(=O)Nc2cccc3c2O[C@@H](CN(C)Cc2ccc(C(=O)Nc4ccccc4N)cc2)[C@H](C)CN([C@@H](C)CO)C3=O)cc1
[1]
  AC50: 3.2 µM (active)

## COc1ccc2c(c1)c[n+](C)c1c3cc(OC)c(OC)cc3ccc21
[2]
  IC50: > 122 µM (inactive)
[3]
  AC50: 0.558 µM (active)

## Cc1ccc(S(=O)(=O)Nc2ccc3c(c2)C(=O)N([C@H](C)CO)C[C@H](C)[C@H](CN(C)Cc2ccc(C(=O)Nc4ccccc4N)cc2)OCCCC[C@@H](C)O3)cc1
[1]
  AC50: 2.44 µM (active)

## Nc1cccc(Nc2nc(OC(C(F)(F)F)C(F)(F)F)nc(OC(C(F)(F)F)C(F)(F)F)n2)c1
[2]
  IC50: > 122 µM (inactive)

## C[C@H]1CN([C@@H](C)CO)C(=O)Cc2cc(NS(=O)(=O)c3ccc(F)cc3)ccc2O[C@@H]1CN(C)Cc1ccc(C(F)(F)F)cc1
[1]
  AC50: 4.8 µM (active)

## Cc1cccc(-n2c(SCCC(=O)O)nnc2-c2cccs2)c1C
[4]
  IC50: > 50 µM (not active)

## C[C@@H]1CN([C@H](C)CO)C(=O)c2cccc(NC(=O)NC3CCCCC3)c2O[C@@H]1CN(C)Cc1ccc(-c2ccccc2)cc1
[1]
  AC50: 3.37 µM (active)

## COc1ccc(S(=O)(=O)Nc2ccc3c(c2)C(=O)N([C@H](C)CO)C[C@H](C)[C@H](CN(C)C(=O)Nc2ccc(C(F)(F)F)cc2)OCCCC[C@@H](C)O3)cc1
[1]
  AC50: 2.64 µM (active)

## CC(NC(=O)c1ccc(Br)cc1)c1ccc2c(c1)CCCC2 (centres undefined)
[5]
  AC50: 2.75 µM (active)

## CSC(=S)NN=C(C)c1cccc(C)n1
[6]
  IC50: 1.1 µM (active)
[5]
  AC50: 23.7 µM (active)

## Cc1ccc(S(=O)(=O)Nc2cccc3c2O[C@@H](CN(C)Cc2ccc(-c4ccccc4)cc2)[C@@H](C)CN([C@H](C)CO)C3=O)cc1
[1]
  AC50: 3.16 µM (active)

## CCOC(=O)C(=NC(C)CC)NNc1cccc(C(F)(F)F)c1 (centres undefined)
[2]
  IC50: > 122 µM (inactive)

## CN(C)C1CCN(Cc2cc(COCc3ccccc3)c3cccnc3c2O)C1 (centres undefined)
[7]
  AC50: 9.99 µM (active)
[8]
  AC50: 2.78 µM (active)
[6]
  IC50: 5.98 µM (active)

## Cc1ccc(NC(S)=NNC(=O)c2nnn(-c3ccccc3)c2C)cc1
[2]
  IC50: > 122 µM (inactive)

## N#Cc1c(N/C=C2\C(=O)NC(=O)N(Cc3ccco3)C2=O)sc2c1CCCC2
[4]
  IC50: > 50 µM (not active)
[9]
  IC50: 32.6 µM (active)

## Cc1c(C#N)c(NC(=O)CCl)n(Cc2ccccc2)c1C
[10]
  EC50: 3.39 µM (active)
[7]
  AC50: 11.2 µM (active)
[11]
  EC50: > 260 µM (inactive)
[12]
  AC50: 21.5 µM (active)

## Cc1sc2nc(C3CC3)nc(SCC(=O)NCc3ccco3)c2c1C
[5]
  AC50: 5.75 µM (active)

## C[C@@H]1CN([C@H](C)CO)C(=O)c2cc(NC(=O)Nc3ccc(F)cc3)ccc2O[C@@H](C)CCCCO[C@H]1CN(C)C(=O)C1CCCCC1
[13]
  AC50: 50.3 µM (active)
[14]
  AC50: 5.55 µM (active)

## Cc1ccccc1-c1ccc([C@@H]2[C@@H](CO)N3CCCCN(C(=O)NC4CCCC4)C[C@H]23)cc1
[13]
  AC50: 52.2 µM (active)
[14]
  AC50: 21.6 µM (active)

## O=C1CC(c2ccccc2)=NN1c1nc(-c2ccccc2)cs1
[15]
  EC50: 13.2 µM (active)
[16]
  EC50: 11.4 µM (active)
[17]
  EC50: > 120 µM (not active)
[5]
  AC50: 3.34 µM (active)

## CCCn1c(N=C(S)Nc2ccccc2)nc2ccccc21
[2]
  IC50: 112 µM (inactive)
